8 compounds from patent publication US12398120B2, “Substituted hydantoinamides as ADAMTS7 antagonists” (BAYER AKTIENGESELLSCHAFT, priority 2019, dated 2025) can be followed below.

The structures appear in SMILES notation. pIC50: −log10 of the molar value.

Sequence of ADAMTS4 (O75173 213-685): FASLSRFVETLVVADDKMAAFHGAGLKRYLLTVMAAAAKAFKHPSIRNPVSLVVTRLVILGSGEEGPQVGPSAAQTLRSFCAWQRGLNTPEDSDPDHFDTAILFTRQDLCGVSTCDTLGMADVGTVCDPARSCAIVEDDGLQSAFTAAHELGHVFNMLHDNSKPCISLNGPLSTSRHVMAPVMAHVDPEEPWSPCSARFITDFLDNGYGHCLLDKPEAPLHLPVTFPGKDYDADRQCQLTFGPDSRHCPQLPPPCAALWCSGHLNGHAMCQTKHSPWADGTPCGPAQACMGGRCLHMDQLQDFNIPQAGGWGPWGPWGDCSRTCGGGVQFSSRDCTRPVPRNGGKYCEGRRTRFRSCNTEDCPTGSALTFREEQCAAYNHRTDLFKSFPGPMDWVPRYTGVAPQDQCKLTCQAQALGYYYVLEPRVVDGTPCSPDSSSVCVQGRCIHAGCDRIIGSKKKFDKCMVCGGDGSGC

The first experiment addresses ADAMTS4 (Homo sapiens (Human), UniProt O75173). Kind of experiment: Selectivity assay for ADAMTS-7 modulators: ADAMTS4 (FRET substrate). In kind it is biochemical. As to conditions: ADAMTS4 (R&D 4307-AD) 50 nM, substrate Dabcyl-EEVKAKVQPY-Glu(Edans)-NH2 1 μM, 120 min, 32° C. Put shortly:
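Human ADAMTS4 with compound in DMSO, or DMSO control; reaction started by adding FRET substrate in reaction buffer. Fluorescence increase measured at substrate-specific wavelengths. IC50 derived from % inhibition of enzyme activity versus compound concentration.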
As to `Cn1cncc1C1(CNC(=O)c2ccc(F)cc2-c2ccc(C(F)(F)F)cc2)NC(=O)NC1=O` (racemic) [Example 284, Rac-5-Fluoro-N-{[4-(1-Methyl-1H-Imidazol-5-Yl)-2,5-Dioxoimidazolidin-4-Yl]Methyl}-4′-(Trifluoromethyl)[Biphenyl]-2-Carboxamide], the pIC50 was 5.07.

In turn, `Cn1nccc1C1(CNC(=O)c2c(Cl)cccc2-c2ccc(Cl)cc2)NC(=O)NC1=O` (single isomer, unassigned; ent-3) [Example 189, Ent-3,4′-Dichloro-N-{[4-(1-Methyl-1H-Pyrazol-5-Yl)-2,5-Dioxoimidazolidin-4-Yl]Methyl}[Biphenyl]-2-Carboxamide] gave a pIC50 of 5.44.

Turning to `Cc1cc(C2(CNC(=O)c3ccc(F)cc3-c3ccc(C(F)(F)F)cc3)NC(=O)NC2=O)n(C)n1` (racemic) [Example 276, Rac-N-{[4-(1,3-Dimethyl-1H-Pyrazol-5-Yl)-2,5-Dioxoimidazolidin-4-Yl]Methyl}-5-Fluoro-4′-(Trifluoromethyl)[Biphenyl]-2-Carboxamide], the pIC50 was 4.82. The compound `Cn1nccc1C1(CNC(=O)c2ccc(F)cc2-c2ccc(Cl)cc2)NC(=O)NC1=O` (single isomer, unassigned; ent-4) [Example 180, Ent-4′-Chloro-5-Fluoro-N-{[4-(1-Methyl-1H-Pyrazol-5-Yl)-2,5-Dioxoimidazolidin-4-Yl]Methyl}[Biphenyl]-2-Carboxamide] showed a pIC50 of 4.75.

Turning to `CCc1ccc(-c2cc(F)ccc2C(=O)NC[C@@]2(C3CC3)NC(=O)NC2=O)cc1` [Example 110, N-{[(4R)-4-Cyclopropyl-2,5-Dioxoimidazolidin-4-Yl]Methyl}-4′-Ethyl-5-Fluoro[Biphenyl]-2-Carboxamide], the pIC50 is 5.10. The compound `Cc1scnc1C1(CNC(=O)c2ccccc2-c2ccc(Cl)cc2)NC(=O)NC1=O` (racemic) [Example 171, Rac-4′-Chloro-N-{[4-(5-Methyl-1,3-Thiazol-4-Yl)-2,5-Dioxoimidazolidin-4-Yl]Methyl}[Biphenyl]-2-Carboxamide] showed a pIC50 of 5.16.

Regarding `O=C1NC(=O)C(CNC(=O)c2ccccc2-c2ccc(C(F)(F)F)cc2)(c2cncn2CC(F)(F)F)N1` (racemic) [Example 94, Rac-N-({2,5-Dioxo-4-[1-(2,2,2-Trifluoroethyl)-1H-Imidazol-5-Yl]Imidazolidin-4-Yl}Methyl)-4′-(Trifluoromethyl)[Biphenyl]-2-Carboxamide], the pIC50 is 5.27.

Staying with this experiment, now noted: ADAMTS4 (R&D 4307-AD) 50 nM, substrate Dabcyl-[…]-Glu(Edans)-NH2 1 μM, 120 min, 32° C.
In turn, `O=C1NC(=O)C(CNC(=O)c2ccc(F)cc2-c2ccc(Cl)cc2)(C2(F)CC2)N1` (single isomer, unassigned; ent-4) [Example 301, Ent-4′-Chloro-5-Fluoro-N-{[4-(1-Fluorocyclopropyl)-2,5-Dioxoimidazolidin-4-Yl]Methyl}[Biphenyl]-2-Carboxamide] gave a pIC50 of 4.82.

As usually defined, the pIC50 is −log10 of the IC50, conventionally taken in molar units. Low readings indicate a high IC50, high ones a low IC50.
